Columns and labels:
[1] = 3 cycles of mating after Cy, alone or co-treated
primary follicles = test: Proliferation assay, Ki-67 staining of primary follicles; format: in vivo, mouse
Experimental: Mild proliferation: 1-2 granulosa cells per follicle stained for Ki-67. Extensive proliferation: 3 or more granulosa cells per follicle stained for Ki-67. An average number of primary follicles stained in each category in 2-3 sections per ovary was calculated.

rpS6 = test: Western blotting of whole ovaries, prpS6/rpS6; format: in vivo, mouse; details: whole ovaries 24 hours after Cy 150 mg/kg, alone or co-treated
PMF oocytes [2] = test: DNA damage assay, γH2AX staining; format: in vivo, mouse; details: ovaries removed 12 h after Cy, alone or co-treated; FIG. 7A
Experimental: BALB/c female mice aged 12 days or 8 weeks (Envigo, Israel) were given a single intraperitoneal injection of 200 μl of PBS or an equal volume of 150 mg/kg Cy (Sigma-Aldrich), 5 mg/kg temsirolimus (Selleck Chemicals; 5 doses in 7 days before Cy treatment, Bozec et al., 2011; Wan et al., 2006) or 5 μg/mouse human C-terminus recombinant AMH (rAMH R&D Systems), 5 doses in 24 hours—every 6 hours following the administration of Cy (Roness et al., 2019). Ovaries were collected either 12 or 24 hours after Cy treatment for protein analysis and histochemical staining, and 3 or 21 days after Cy treatment for H&E staining and follicle counts. Ovaries were removed and placed immediately into either RNA later solution or 4% paraformaldehyde. All procedures were approved by the Institutional Animal Care and Use Institutional Ethics Committee.
DNA damage assay: Sample sections (5μ) from ovaries removed 12h after Cy treatment were stained for DNA damage evaluation with γH2AX antibody, and all the PMF oocytes were classified as positive/negative for DNA damage. Oocytes were counted from 6-8 ovaries and the ratio of stained oocytes to total oocytes was calculated.

[3] = tested on: primordial follicles (PMF); test: In vivo mouse model of Cy-induced follicle depletion, follicle counting (H&E)
Experimental: Ovaries removed 12 h, 24h, 3 days or 21 days following Cy treatment were fixed in PFA, paraffin-embedded and serially sectioned (5-μm).
Follicle counting: H&E staining was used for differential follicle counts in ovaries removed 3 and 21 days following Cy treatment and conducted as previously described. […] Atretic follicles were not calculated. Only follicles with non-atretic and healthy granulosa cells were counted for total number

PMF oocytes [4] = test: Apoptosis assay, cPARP staining; format: in vivo, mouse; details: ovaries removed 24 h after Cy, alone or co-treated; FIG. 7B
Experimental: Apoptosis assay: Sample sections (5μ) from ovaries removed 24h after Cy treatment were stained for apoptotic marker cPARP antibody, and all the PMF oocytes were classified as positive/negative for apoptosis. Oocytes were counted from 6-8 ovaries and the ratio of stained oocytes to total oocytes was calculated.

mTOR = test: Western blotting of whole ovaries, pmTOR/mTOR; format: in vivo, mouse; details: whole ovaries 24 hours after Cy 150 mg/kg, alone or co-treated
[5] = tested on: primordial follicles (PMF); test: Ex vivo culture of neonatal mouse ovaries with PM, PMF counting (H&E); format: cell-based; details: ex vivo ovaries of 12 days mice, PM 4 hours, with or without 400 nM Tem; FIG. 2A
[6] = Cy 150 mg/kg, with or without Tem, FIG. 3B

O=P1(N(CCCl)CCCl)NCCCO1 (stereo not shown) [Cy, cyclophosphamide]
mean litter size [1]: 4.62
Granulosa cells in primary follicles, Extensive proliferation (primary follicles; mouse, in vivo): 21%
Granulosa cells in primary follicles, Mild proliferation (primary follicles; mouse, in vivo): 63%
Granulosa cells in primary follicles, No proliferation (primary follicles; mouse, in vivo): 16%
primary follicles classified as proliferating (either mild or extensive proliferation) (primary follicles; mouse, in vivo): 84%
relative band intensity of phosphorylated rpS6 (prpS6/rpS6 ratio) (rpS6): 1.88
PMF oocytes stained positive for γH2AX (DNA damage) (PMF oocytes [2]): more than 90%
PMF loss ([3]; mouse, in vivo): 77%
PMFs 3 days after Cy treatment ([3]; mouse, in vivo): 59.5±2.7
number of PMFs three weeks after treatment ([3]; mouse, in vivo): 32±2.12
ratio between growing and dormant follicles ([3]; mouse, in vivo): 1.31
total number of growing follicles 3 days after Cy treatment ([3]; mouse, in vivo): 78.5±6.1
PMF oocytes stained positive for cPARP (apoptosis) (PMF oocytes [4]): 22%
relative band intensity of phosphorylated mTOR (pmTOR/mTOR ratio) (mTOR): 1.44

CO[C@H]1C[C@@H]2CC[C@@H](C)[C@@](O)(O2)C(=O)C(=O)N2CCCC[C@H]2C(=O)O[C@H]([C@H](C)C[C@@H]2CC[C@@H](OC(=O)C(C)(CO)CO)[C@H](OC)C2)CC(=O)[C@H](C)/C=C(\C)[C@@H](O)[C@@H](OC)C(=O)[C@H](C)C[C@H](C)/C=C/C=C/C=C/1C [Tem, Temsirolimus]
Granulosa cells in primary follicles, Mild proliferation (primary follicles; Ki-67, 1-2 granulosa cells stained, ovaries removed 24 hours after Cy 150 mg/kg or PBS): 22%
Granulosa cells in primary follicles, Extensive proliferation (primary follicles; Ki-67, 3 or more granulosa cells stained, ovaries removed 24 hours after Cy 150 mg/kg or PBS): 5%
primary follicles classified as proliferating (either mild or extensive proliferation) (primary follicles; Ki-67, 24 hours after Cy, alone or co-treated): 32%
Granulosa cells in primary follicles, No proliferation (primary follicles; Ki-67, ovaries removed 24 hours after Cy 150 mg/kg or PBS): 73%
relative band intensity of phosphorylated rpS6 (prpS6/rpS6 ratio) (rpS6): 0.3
PMF count 21 days after Cy treatment ([3]; 8-week-old mice, single dose Cy 150 mg/kg, with or without Tem 5 mg/kg 5 doses, FIG. 3A): 122.5±1.7
ratio between growing and dormant follicles ([3]; 3 days after Cy 150 mg/kg, with or without Tem, FIG. 3C): 0.66
number of PMFs three weeks after treatment ([3]; Cy 150 mg/kg, with or without Tem and/or rAMH (5 μg/mouse, 5 doses), FIG. 4): 68.5±2.69
PMFs 3 days after Cy treatment [3, 6]: 101.6±8.9
total number of growing follicles 3 days after Cy treatment [3, 6]: 65.6±5.2
PMF loss ([3]; three weeks after Cy 150 mg/kg, with or without co-treatment, FIG. 4): 52%
PMFs on day 7 of culture [5]: 124±5.9
PMF oocytes stained positive for cPARP (apoptosis) (PMF oocytes [4]): 14%
relative band intensity of phosphorylated mTOR (pmTOR/mTOR ratio) (mTOR): 0.57

Reference: US20240415820A1, “COMBINATIONS FOR RETAINING FOLLICLES RESERVE” (SHEBA IMPACT LTD., priority 2021, published 2024)
